Measurements published in patent publication US11241011B2, “Microbiocidal quinoline (thio)carboxamide derivatives” (SYNGENTA PARTICIPATIONS AG, priority 2017, dated 2022).

Columns and labels:
[1] = system: Gaeumannomyces graminis; experiment: Gaeumannomyces graminis / liquid culture (take-all of cereals); format: cell-based; details: 20 ppm, growth inhibition photometrically 4-5 days after application, vs untreated control
Procedure: Gaeumannomyces Graminis/Liquid Culture (Take-All of Cereals)
Mycelial fragments of the fungus from cryogenic storage were directly mixed into nutrient broth (PDB potato dextrose broth). After placing a (DMSO) solution of test compound into a microtiter plate (96-well format), the nutrient broth containing the fungal spores iss added. The test plates are incubated at 24° C. and the inhibition of growth is determined photometrically 4-5 days after application.

| Compound | melting point [°C] | control of Gaeumannomyces graminis [1] |
| --- | --- | --- |
| O=C(Nc1cnc2c(F)cccc2c1)C(CC#CC1CC1)CC(F)(F)F (stereo not shown) [Compound E-2, 5-cyclopropyl-N-(8-fluoro-3-quinolyl)-2-(2,2,2-trifluoroethyl)pent-4-ynamide] | 182 to 184 | – |
| C#CCC(C)(CC(C)C)C(=O)Nc1cnc2c(F)cccc2c1 (stereo not shown) [Compound E-3, N-(8-fluoro-3-quinolyl)-2-isobutyl-2-methyl-pent-4-ynamide] | 125 to 127 | – |
| CC#CCC(C)(CC(C)C)C(=O)Nc1cnc2c(F)cccc2c1 (stereo not shown) [Compound E-5, N-(8-fluoro-3-quinolyl)-2-isobutyl-2-methyl-hex-4-ynamide] | 139 to 140 | at least 80% |
